Assay results reported in article PMC11219744, “Renal excretion of 1,2-dihydroxynaphthalene (DHN) in firefighting instructors after exposure to polycyclic aromatic hydrocarbons (PAHs) during live fire training” (Scientific Reports, 2024).
Where “and” joins values, the source holds several entries; their conditions need not be identical. Equal values may be shown once. Read-outs that look alike come from different tables or passages of the source.

Experiments:
[1] = design: method as in PMID 32464238; settings: by scheduled sampling time; cited from earlier work
[2] = upper margin of internal exposure typically found in smokers; cited from earlier work
[3] = Human biomonitoring: urinary excretion of PAH metabolites (GC–MS/MS, creatinine-normalised) in firefighting instructors before and after live fire training; settings: for Median increase from baseline (sample 2) to peak excretion: peak: sample 5 for 1-PYR, sample 4 otherwise; for concentration at 6 h: Concentration in urine, sampling 6, corresponding to end of shift
Procedure: All study participants (n = 6) were male firefighting instructors from Germany. […] Before the start of the study, all subjects declared that they were non-smokers. Tattoo bearers were excluded before the start of the study as tattoo ink can be a potential source of polycyclic aromatic hydrocarbons. The authors declare that this research was conducted in accordance with the relevant regulations, including the Declaration of Helsinki. All subjects gave written informed consent after being informed about the study by the investigator.
Exposure to combustion products took place in several training sessions that simulated live fire conditions by burning a defined number of uncoated chipboards in an overseas container. The container was located in a hall with exhaust air purification. […] In addition, all subjects wore long-sleeved undergarments under their turnout gear. Only laundered clothing and cleaned equipment (e.g. helmets, masks) were used. The donning and doffing of clothing and protective equipment took place only in a smoke-free, well-ventilated area. Immediately after taking off the firefighters' gloves after training, the participants put on nitrile gloves for further undressing. After removing the helmet, flash hood and SCBA face shield, the participants put on particle filtering half masks (FFP3) to remove contaminated turnout jackets and trousers. After a break for rehydration and cool down still wearing their undergarments, the participants went to shower. […] The interval between two consecutive training sessions for each subject was at least six days. […] In this way, each subject was biomonitored at each of the five training sessions. All additional (unscheduled) urinations between the predefined times were also collected in separate containers and pooled afterwards with the next scheduled sample. […] A total of 270 samples were to be collected using this procedure for all participants and five training sessions of each individual. Subjects completed a questionnaire for each sampling period to account for possible pre-exposure or concurrent exposure to PAHs from sources other than the fire simulation unit, such as occupational exposure to combustion products, exposure to tobacco smoke (active/passive) and barbecue activities, and consumption of smoked or charbroiled foods.
In brief, the analytes were extracted by liquid–liquid extraction with n-hexane after enzymatic hydrolysis of the urine samples with ß-glucuronidase/arylsulfatase (isolated from helix pomatia) and derivatised by silylation with N-trimethylsilyl-N-methyl trifluoroacetamide afterwards. […] All standards were obtained from LGC-Standards, Wesel, Germany.
DHN in urine was determined referring to a method described in detail by Klotz et al.[29]. […] External calibration with internal standardisation by an isotopically labelled analogue of the target compound was done by analysis of pool urine samples spiked with the glucuronides of DHN and D6-1,2-dihydroxynaphthalene (internal standard) before enzymatic hydrolysis. Both standards are not commercially available and were obtained as a gift from the Institute of Occupational, Social and Environmental Medicine at the University of Erlangen-Nuremberg (Germany). A detailed description of the synthesis of the compounds is given by[26]. […] Up to now, there is no external quality assessment scheme available for DHN.
Urinary creatinine was analysed in the Institute of Clinical Chemistry and Laboratory Medicine of University Medical Centre of the Johannes Gutenberg University Mainz using a photometrical assay based on the method of[30].

[4] = Time to peak and initial elimination half-life of the urinary biomarkers (first-order model, linear mixed effects); assay type: in vivo, human; settings: for half-life: male, human, in vivo, initial elimination half-life after peak excretion, urine, read-out: Estimated half-life, mean (converted); for Time to peak, median / Time to peak, range: urinary excretion, time after onset of exposure
Excerpt: The initial half-life of each biomarker was estimated using statistical methods described previously[6],[32]. In short, we estimated the first-order elimination rate constant λ based on the model in Eq. (1):1 C=C0+B·e^λ·t+∈
Here, C is the creatinine-adjusted concentration in urine after the uptake phase, C0 is the baseline concentration before training, B is the difference from peak to baseline concentration, t is the time since peak concentration, and ϵ is the error term. […] Using package nlme[33] for the statistical environment R[34],[35], the model was fitted as a linear mixed effects model for the log concentration difference to baseline ln(C–C0) as the outcome. The model was fitted simultaneously for all data and included fixed effects for biomarker, time since peak, and their interaction term. It used random slopes for time since peak and random intercepts for […]. Errors were assumed to be autocorrelated according to an AR(1) process.

[5] = cited from earlier work
[6] = sampling 1, morning urine on training day before exposure (mean −4.2 h from start of exposure), n = 30
[7] = sampling 1, morning urine on training day before exposure, n = 30
[8] = sampling 2, before training (mean −0.4 h), n = 28
[9] = sampling 2, before training, n = 28
[10] = sampling 3, at the end of the training session (mean 2.0 h after start of exposure), n = 26
[11] = sampling 3, at the end of the training session, n = 26
[12] = sampling 4, 1 h after the end of training (mean 3.0 h after start of exposure), n = 25
[13] = sampling 4, 1 h after the end of training, n = 25
[14] = sampling 5, 3 h after the end of training (mean 5.2 h after start of exposure), n = 22
[15] = sampling 5, 3 h after the end of training, n = 22
[16] = sampling 6, 6 h after the end of training (mean 8.1 h after start of exposure), n = 23
[17] = sampling 6, 6 h after the end of training, n = 23
[18] = sampling 7, 9 h after the end of training (mean […] after start of exposure), n = 27
[19] = sampling 7, 9 h after the end of training, n = 27
[20] = sampling 8, right before bedtime (mean 12.7 h after start of exposure), n = 27
[21] = sampling 8, right before bedtime, n = 27
[22] = sampling 9, morning urine the next day, 18 h after training (mean 20.1 h after start of exposure), n = 29
[23] = sampling 9, morning urine the next day, n = 29
[24] = 58 urine samples before onset of exposure, not creatinine-normalised

Structure (SMILES): Oc1cccc2ccccc12 [1-NAP, 1-hydroxynaphthalene]
- Time of peak excretion after the end of the training session [1]: 1 h
- 95th percentile of urinary concentration in smokers [2]: 32.8 µg/g crea.
- Increase in concentration from before exposure up to the maximum of excretion, factor ([3]; in vivo): 40
- Median increase in morning urine after exposure (sampling 9) vs. before (sampling 1) ([3]; in vivo): 3.9 fold
- Median increase from baseline (sample 2) to peak excretion [3]: 36 fold

Structure (SMILES): Oc1ccc2ccc3cccc4ccc1c2c34 [1-PYR, 1-hydroxypyrene]
- half-life [4]: 7.7 h
- Time to peak, median [4]: 5.3 h
- Time to peak, range [4]: 2.5 to 13.9 h
- Median increase in morning urine after exposure (sampling 9) vs. before (sampling 1) ([3]; male, human, in vivo, 18 h): 2.8 fold
- Median increase from baseline (sample 2) to peak excretion [3]: 7.9 fold
- Maximum excretion pre exposure ([3]; pre exposure samplings): 0.22 µg/g creatinine
- Concentration in urine, median [3, 6]: 0.06 µg/g creatinine
- Concentration in urine, IQR [3, 7]: 0.04–0.08 µg/g creatinine
- Concentration in urine, range [3, 7]: 0.03–0.15 µg/g creatinine
- Concentration in urine, median [3, 8]: 0.05 µg/g creatinine
- Concentration in urine, IQR [3, 9]: 0.03–0.06 µg/g creatinine
- Concentration in urine, median [3, 10]: 0.06 µg/g creatinine
- Concentration in urine, IQR [3, 11]: 0.04–0.08 µg/g creatinine
- Concentration in urine, median [3, 12]: 0.20 µg/g creatinine
- Concentration in urine, IQR [3, 13]: 0.14–0.31 µg/g creatinine
- Concentration in urine, range [3, 13]: 0.06–1.61 µg/g creatinine
- Concentration in urine, median [3, 14]: 0.40 µg/g creatinine
- Concentration in urine, IQR [3, 15]: 0.21–0.59 µg/g creatinine
- Concentration in urine, range [3, 15]: 0.16–1.88 µg/g creatinine
- Concentration in urine, median [3, 16]: 0.29 µg/g creatinine
- Concentration in urine, IQR [3, 17]: 0.19–0.42 µg/g creatinine
- Concentration in urine, range [3, 17]: 0.10–1.93 µg/g creatinine
- Concentration in urine, median [3, 18]: 0.25 µg/g creatinine
- Concentration in urine, IQR [3, 19]: 0.16–0.30 µg/g creatinine
- Concentration in urine, range [3, 19]: 0.08–1.56 µg/g creatinine
- Concentration in urine, median [3, 20]: 0.21 µg/g creatinine
- Concentration in urine, IQR [3, 21]: 0.12–0.33 µg/g creatinine
- Concentration in urine, range [3, 21]: 0.06–1.06 µg/g creatinine
- Concentration in urine, median [3, 22]: 0.17 µg/g creatinine
- Concentration in urine, IQR [3, 23]: 0.10–0.25 µg/g creatinine
- Concentration in urine, range [3, 23]: 0.05–0.63 µg/g creatinine

Structure (SMILES): Oc1ccc2ccccc2c1O [DHN, 1,2-dihydroxynaphthalene]
- Time of peak excretion after the end of the training session ([4]; by scheduled sampling time): 1 h
- Time required to reach pre exposure levels again ([4]; from median maximum 134.15 µg/g crea., about 5 half-lives, monophasic elimination assumed): approximately 33 h
- half-life [4]: 6.6 h
- Time to peak, median [4]: 3.3 h
- Time to peak, range [4]: 2.5 to 19.0 h
- Urinary level, median ([5]; 20 non-smoking subjects): 4.6 µg/L
- Urinary concentration, GM (GSD) ([5]; coke oven workers, n = 28, China): 452 (2.28) µg/l
- Urinary concentration, geometric mean ([5]; control group, n = 22 office and hospital workers including three smokers, China): 38.8 µg/L
- Urinary concentration, median ([5]; n = 9 smokers): 17.1 µg/L
- Urinary concentration, range ([5]; n = 9 smokers): 1.9 to 62 µg/L
- Urinary concentration, median (range) ([5]; wood impregnation workers, n = 9, Germany): 88.3 (10.8–1497) µg/l
- Urinary concentration, median (range) ([5]; workers at converter infeed, n = 26, Germany): 945.4 (22.0–1902.6) µg/l
- Urinary concentration, median (range) ([5]; workers in the abrasive industry, post-shift Monday, n = 10, Germany): 3944 (114–42,066) µg/l
- Urinary concentration, median (range) ([5]; workers in the abrasive industry, post-shift Thursday, n = 10, Germany): 11,162 (337–51,809) µg/l
- Concentration in urine, median [3, 24]: 2.89 µg/L
- Concentration in urine, range [3, 24]: 0.6 to 19.4 µg/L
- Baseline concentration in urine, total range ([3]; before training, samplings 1 and 2 together): 0.9–10.2 µg/g crea. and 0.87–10.19 µg/g crea.
- Urinary peak concentration, median (range) ([3]; firefighters after live fire training, sampling 4, n = 6, Germany): 246.7 (18.2–1084.2) µg/l
- Median increase in morning urine after exposure (sampling 9) vs. before (sampling 1) ([3]; male, human, in vivo, 18 h): 12.9 fold
- concentration at 6 h ([3]; male, human, in vivo, median): 71.3 ng/mL
- concentration at 6 h ([3]; male, human, in vivo, range): 16.6 to 674 ng/mL
- Median increase from baseline (sample 2) to peak excretion [3]: 41 fold
- Individual maximum concentration in urine ([3]; post exposure, sampling 4): 380.4 µg/g crea.
- Concentration in urine, median [3, 6]: 2.23 µg/g creatinine
- Concentration in urine, IQR [3, 7]: 1.43–4.18 µg/g creatinine
- Concentration in urine, range [3, 7]: 0.87–10.19 µg/g creatinine
- Concentration in urine, median [3, 8]: 3.3 µg/g creatinine and 3.32 µg/g creatinine
- Concentration in urine, IQR [3, 9]: 2.03–4.80 µg/g creatinine
- Concentration in urine, range [3, 9]: 1.41–9.04 µg/g creatinine
- Concentration in urine, median [3, 10]: 31.60 µg/g creatinine
- Concentration in urine, IQR [3, 11]: 25.79–52.81 µg/g creatinine
- Concentration in urine, range [3, 11]: 10.68–166.80 µg/g creatinine
- Concentration in urine, median [3, 12]: 134.2 µg/g creatinine and 134.15 µg/g creatinine
- Concentration in urine, IQR [3, 13]: 92.94–164.89 µg/g creatinine
- Concentration in urine, range [3, 13]: 43.38–380.43 µg/g creatinine
- Concentration in urine, median [3, 14]: 131.46 µg/g creatinine
- Concentration in urine, IQR [3, 15]: 104.83–207.75 µg/g creatinine
- Concentration in urine, range [3, 15]: 78.66–375.77 µg/g creatinine
- Concentration in urine, median [3, 16]: 86.01 µg/g creatinine
- Concentration in urine, IQR [3, 17]: 67.60–137.94 µg/g creatinine
- Concentration in urine, range [3, 17]: 46.21–284.21 µg/g creatinine
- Concentration in urine, median [3, 18]: 51.58 µg/g creatinine
- Concentration in urine, IQR [3, 19]: 40.81–76.67 µg/g creatinine
- Concentration in urine, range [3, 19]: 21.95–159.57 µg/g creatinine
- Concentration in urine, median [3, 20]: 46.02 µg/g creatinine
- Concentration in urine, IQR [3, 21]: 30.70–63.89 µg/g creatinine
- Concentration in urine, range [3, 21]: 19.82–154.82 µg/g creatinine
- Concentration in urine, median [3, 22]: 27.1 µg/g creatinine and 27.08 µg/g creatinine
- Concentration in urine, IQR [3, 23]: 20.03–40.28 µg/g creatinine
- Concentration in urine, range [3, 23]: 15.69–139.47 µg/g creatinine
